Reference: patent US5306712A, “Fungicidal silicon-containing compounds and their agrochemical and medicinal uses” (Sanyo Company, Limited, priority 1991, dated 1994)
In brackets after ≈: the same amount, converted by molar mass.

Key:
[1] = test system: Fusarium moliniforme (Fungus C); test: Antifungal Activity (paper disc on agar); conditions: 30 μl of 300 ppm acetone solution, 25° C., 5 days
Description: (§4) A fungal disc of about 4 mm diameter was inoculated on an agar medium (2% by weight malt extract, 1% glucose, 0.3% peptone and 2% agar) in a petri dish of diameter 9 cm, by placing the disc on the center of the medium. Paper disc specimens were prepared by impregnating 30 μl of an acetone solution containing 300 ppm of the test compound into the disc (diameter 8 mm, thickness 0.7 mm) and then subjecting it to dry sterilization. The disc specimens were placed in a circle at about 1 cm distance from the fringe of the grown fungus, three days after the inoculation. The specimens were then maintained at 25° C. for 5 days, after which the antifungal activity was determined by visual observation of infection of the specimens by the fungus. The fungi tested were:
Fusarium moliniforme (Fungus C).
The antifungal activity is indicated by the following ratings:

[2] = test system: Gliocladium virens (Fungus B); test: Antifungal Activity (paper disc on agar); conditions: 30 μl of 300 ppm acetone solution, 25° C., 5 days
Description: as §4
Gliocladium virens (Fungus B), and

[3] = test system: Tyromyces palustris (Fungus E); test: Wood-preservative Activity (Antidecay); conditions: paper disc, 30 μl of 300 ppm acetone solution, 25° C., 5 days
Description: (§5) A fungal disc of about 4 mm diameter was inoculated on an agar medium (2% by weight malt extract, 1% glucose, 0.3% peptone and 2% agar) in a petri dish of diameter 9 cm, by placing the disc on the center of the medium. Paper disc specimens were prepared by impregnating 30 μl of an acetone solution containing 300 ppm of the test compound into the disc (diameter 8 mm, thickness 0.7 mm) and then subjecting it to dry sterilization. The disc specimens were placed in a circle at about 1 cm distance from the fringe of the grown fungus, three days after the inoculation. The specimens were then maintained at 25° C. for 5 days, after which the antifungal activity was determined by visual observation of infection of the specimens by the fungus.
(§6) The procedure described in Experiment 7 was repeated, except that the fungi tested were Coriolus versicolor (Fungus D) and Tyromyces palustris (Fungus E), which are prescribed in JIS A-9201.

[4] = test system: Aspergillus niger (Fungus A); test: Antifungal Activity (paper disc on agar); conditions: 30 μl of 300 ppm acetone solution, 25° C., 5 days
Description: as §4
Aspergillus niger (Fungus A),

[5] = test system: Coriolus versicolor (Fungus D); test: Wood-preservative Activity (Antidecay); conditions: paper disc, 30 μl of 300 ppm acetone solution, 25° C., 5 days
Description: as §5, §6

[6] = test system: Microsporum gypseum; test: Antifungal Test (MIC, Sabouraud's agar); type: cell-based; conditions: Nannizzia gypsea, 120 h
Description: (§1) (i) Preparation of the test solution: The sample to be tested was examined to determine a suitable solvent from those listed below and the method of dissolution, and then the sample was weighed (about 10 mg), dissolved in the selected solvent and diluted with sterilized distilled water to a concentration of 500 μg/ml. Samples of the resulting solution were then subjected to sequential dilution to half the previous concentration to prepare I2 samples in which the concentration of active compound is progressively halved.
(§2) (ii) Test procedure for antifungal activity: Using Nunklon (Registered trademark) 24.hole plates (manufactured by Nunk K. K.), 0.1 ml each of the diluted solutions described above was poured into a hole, 0.9 ml of Sabouraud's agar medium was added to each hole, giving a total of 1 ml in each hole, and mixed to prepare the plate medium.
6 Microsporum gypseum (M. gypseu)
(§3) These test strains were inoculated by means of a slant on Sabouraud's agar medium, cultured at 27° C. for 2 days for the yeast strains or for 7 to 14 days for the mold strains, and, kept intact, preserved at 5° C. (subcultured every 1 month). On the day of the test, in the case of the yeast medium, physiological saline to which had previously been added Tween 80 in an amount of 0.1% (w/v) was added to each medium to prepare 10^6 cells/ml suspensions; and, in the case of the mold medium, 4 ml each of the solution above was added to the surface of the agar slant, the surface was rubbed slightly with a stirrer or a platinum loop to suspend the spores, and then, by filtration through a funnel on which 2 sterilized gauzes were placed one upon another, 10^6 cells/ml suspensions were prepared. Using an Eppendorf pipette, 0.1 ml each of these suspension preparations was inoculated and cultivated. The culture was conducted at 27° C. for 2 days for the three strains of yeast, for 5 days for molds 4 , 5 and 6, and for 7 days for molds 7 and 8 to determine minimal inhibitory concentrations of the test samples.

[7] = test system: Trichophyton rubrum Sc.; test: Antifungal Test (MIC, Sabouraud's agar); type: cell-based; conditions: 168 h
[8] = test system: Mucor mucedo; test: Antifungal Test (MIC, Sabouraud's agar); type: cell-based; conditions: 120 h
[9] = test system: Trichophyton mentagrophytes Sc.; test: Antifungal Test (MIC, Sabouraud's agar); type: cell-based; conditions: 168 h, T. mentag, 27° C., 7 days
Description: as §1, §2
7 Trichophyton mentagrophytes Sc. (T. mentag)
as §3

[10] = test system: Candida Albicans Sc.; test: Antifungal Test (MIC, Sabouraud's agar); type: cell-based; conditions: 48 h, C. albica, 27° C., 2 days
Description: as §1, §2
1 Candida Albicans Sc. (C. albica)
as §3

[11] = test system: Cryptococcus neoformans 58063; test: Antifungal Test (MIC, Sabouraud's agar); type: cell-based; conditions: Cryptococcus neoformans, 58063, 48 h; C. neofor; 27° C., 2 days
Description: as §1, §2
3 Cryptococcus neoformans 58063 (C. neofor)
as §3

[12] = test system: Aspergillus fumigatus; test: Antifungal Test (MIC, Sabouraud's agar); type: cell-based; conditions: 120 h, A. fumiga, 27° C., 5 days
Description: as §1, §2
5 Aspergillus fumigatus (A. fumiga)
as §3

[13] = test system: Candida albicans 427; test: Antifungal Test (MIC, Sabouraud's agar); type: cell-based; conditions: Candida albicans, 427, 48 h

Structure (SMILES) | antifungal activity, Fungus C [1] | antifungal activity, Fungus B [2] | wood-preservative (antidecay) activity, Fungus E [3] | antifungal activity, Fungus A [4] | wood-preservative (antidecay) activity, Fungus D [5] | MIC [6] | MIC [7] | MIC [8] | MIC [9] | MIC [10] | MIC [11] | MIC [12] | MIC [13]
C[Si](C)(C)CC(O)(Cn1cncn1)c1ccccc1 (centres unmarked) [Compound 1-1, 2-Phenyl-1-(1H-1,2,4-triazol-1-yl)-3-trimethylsilyl-2-propanol] | + | - | + | + | + |  |  |  |  |  |  |  | 
C[Si](C)(C)CC(O)(Cn1cncn1)c1ccc(Cl)cc1 (centres unmarked) [Compound 1-2, 2-(4-Chlorophenyl)-1-(1H-1,2,4-triazol-1-yl)-3-trimethylsilyl-2-propanol] | + | + | + | + | + | > 50 µg/mL | 3.1 µg/mL (≈ 10 µM) | > 50 µg/mL | 3.1 µg/mL (≈ 10 µM) | > 50 µg/mL | 12.5 µg/mL (≈ 40.3 µM) | > 50 µg/mL | > 50 µg/mL
C[Si](C)(C)CC(O)(Cn1cncn1)c1ccc(F)cc1 (centres unmarked) [Compound 1-3, 2-(4-Fluorophenyl)-1-(1H-1,2,4-triazol-1-yl)-3-trimethylsilyl-2-propanol] |  |  |  | + |  | > 50 µg/mL | 25 µg/mL (≈ 85.2 µM) | > 50 µg/mL | 25 µg/mL (≈ 85.2 µM) | > 50 µg/mL | > 50 µg/mL | > 50 µg/mL | > 50 µg/mL
C[Si](C)(C)CC(O)(Cn1cncn1)c1ccc(Br)cc1 (centres unmarked) [Compound 1-4, 2-(4-Bromophenyl)-1-(1H-1,2,4-triazol-1-yl)-3-trimethylsilyl-2-propanol] | + | + | + | + | + |  |  |  |  |  |  |  | 
Cc1ccc(C(O)(Cn2cncn2)C[Si](C)(C)C)cc1 (centres unmarked) [Compound 1-5, 2-(4-Methylphenyl)-1-(1H-1,2,4-triazol-1-yl)-3-trimethylsilyl-2-propanol] | + | + | + | + | + |  |  |  |  |  |  |  | 
C[Si](C)(C)CC(O)(Cn1cncn1)c1ccc(C(F)(F)F)cc1 (centres unmarked) [Compound 1-6, 1-(1H-1,2,4-Triazol-1-yl)-2-(4-trifluoromethylphenyl)-3-trimethylsilyl-2-propanol] | + | - | + | + | + |  |  |  |  |  |  |  | 
C[Si](C)(C)CC(O)(Cn1cncn1)c1ccc(Cl)cc1Cl (centres unmarked) [Compound 1-11, 2-(2,4-Dichlorophenyl)-1-(1H-1,2,4-triazol-1-yl)-3-trimethysilyl-2-propanol] | + | + | + | + | + |  |  |  |  |  |  |  | 
C[Si](C)(C)CC(O)(Cn1cncn1)c1ccc(Cl)cc1F (centres unmarked) [Compound 1-14, 2-(4-Chloro-2-fluorophenyl)-1-(1H-1,2,4-triazol-1-yl)-3-trimethylsilyl-2-propanol] | + | + | + | + | + |  |  |  |  |  |  |  | 
C[Si](C)(C)CC(O)(Cn1cncn1)c1ccccc1Cl (centres unmarked) [Compound 1-16, 2-(2-Chlorophenyl)-1-(1H-1,2,4-triazol-1-yl)-3-trimethylsilyl-2-propanol] | + | + | + | + | + |  |  |  |  |  |  |  | 
C[Si](C)(C)CC(O)(Cn1cncn1)c1ccccc1F (centres unmarked) [Compound 1-17, 2-(2-Fluorophenyl)-1-(1H-1,2,4-triazol-1-yl)-3-trimethylsilyl-2-propanol] | + | + | + | + | + |  |  |  |  |  |  |  | 
C[Si](C)(C)CC(O)(Cn1cncn1)c1ccc(Cl)c(Cl)c1 (centres unmarked) [Compound 1-29, 2-(3,4-Dichlorophenyl)-1-(1H-1,2,4-triazol-1-yl)-3-trimethylsilyl-2-propanol] | + | - | - | - | - |  |  |  |  |  |  |  | 
C[Si](C)(C)CC(O)(Cn1ccnc1)c1ccc(Cl)cc1Cl (centres unmarked) [Compound 1-49, 2-(2,4-Dichlorophenyl)-1-(1H-1,3-imidazol-1-yl)-3-trimethylsilyl-2-propanol] | - | - | - | - | + |  |  |  |  |  |  |  | 
C[Si](C)(C)CC(O)(Cn1ccnc1)c1ccc(F)cc1F (centres unmarked) [Compound 1-50, 2-(2,4-Difluorophenyl)-1-(1H-1,3-imidazol-1-yl)-3-trimethylsilyl-2-propanol] | + | - | - | - | + |  |  |  |  |  |  |  | 
C[Si](C)(C)CC(O)(Cn1cncn1)c1ccc(Cl)c(Cl)c1Cl (centres unmarked) [Compound 1-64, 1-(1H-1,2,4-Triazol-1-yl)-2-(2,3,4-trichlorophenyl)-3-trimethylsilyl-2-propanol] | - | - | + | - | - |  |  |  |  |  |  |  | 
C[Si](C)(C)CC(O)(Cn1cncn1)c1cc(Cl)c(Cl)cc1Cl (centres unmarked) [Compound 1-65, 1-(1H-1,2,4-Triazol-1-yl)-2-(2,4,5-trichlorophenyl)-3-trimethylsilyl-2-propanol] | + | - | - | - | - |  |  |  |  |  |  |  | 
C[Si](C)(CC(O)(Cn1cncn1)c1ccc(F)cc1)c1ccc(Cl)cc1 (centres unmarked) [Compound 1-69, 3-[(4-Chlorophenyl)dimethylsilyl]-2-(4-fluorophenyl)-1-(1H-1,2,4-triazol-1-yl)-2-propanol] | + | - | - | - | + |  |  |  |  |  |  |  | 
CC[Si](C)(C)CC(O)(Cn1cncn1)c1ccc(F)cc1 (centres unmarked) [Compound 1-70, 3-Dimethylethylsilyl-2-(4-fluorophenyl)-1-(1H-1,2,4-triazol-1-yl)-2-propanol] | + | + | + | - | + |  |  |  |  |  |  |  | 
C[Si](C)(C)CC(O)(Cn1cncn1)c1ccc(F)cc1 (centres unmarked) [Compound 1-78, Adduct of 2-(4-fluorophenyl)-1-(1H1,2,4-triazol-1-yl)-3-trimethylsilyl-2-propanol with saccharin] | + | + | + | - | + |  |  |  |  |  |  |  | 
C[Si](C)(C)CC(O)(Cn1cncn1)c1ccc(Cl)cc1 (centres unmarked) [Compound 1-83, Adduct of 2-(4-chlorophenyl)-1-(1H-1,2,4-triazol-1-yl)-3-trimethylsilyl-2-propanol with saccharin] | + | + | + | - | + |  |  |  |  |  |  |  | 
